Measurements published in PMC2743475 (Bioorganic & medicinal chemistry, 2009).

Experiments:
[1] = test system: PC-3M prostate cancer cells; settings: PC-3M cells, MTT; cited from earlier work
[2] = test system: PC-3M prostate cancer cells; settings: PC-3M cells, spheroid disaggregation; cited from earlier work
[3] = test system: PC-3M prostate cancer cells; settings: mice; cited from earlier work
prostate cancer cells = settings: even at 200 µM in vitro; cited from earlier work
[4] = in vivo, up to 200 mg/kg; cited from earlier work
Recombinant GSK-3β = Recombinant GSK-3β (Homo sapiens, UniProt P49841); assay: in vitro GSK-3β inhibitory assay using Tau [pS396] phosphoELISA kit
Chain of Recombinant GSK-3β (P49841 whole entry): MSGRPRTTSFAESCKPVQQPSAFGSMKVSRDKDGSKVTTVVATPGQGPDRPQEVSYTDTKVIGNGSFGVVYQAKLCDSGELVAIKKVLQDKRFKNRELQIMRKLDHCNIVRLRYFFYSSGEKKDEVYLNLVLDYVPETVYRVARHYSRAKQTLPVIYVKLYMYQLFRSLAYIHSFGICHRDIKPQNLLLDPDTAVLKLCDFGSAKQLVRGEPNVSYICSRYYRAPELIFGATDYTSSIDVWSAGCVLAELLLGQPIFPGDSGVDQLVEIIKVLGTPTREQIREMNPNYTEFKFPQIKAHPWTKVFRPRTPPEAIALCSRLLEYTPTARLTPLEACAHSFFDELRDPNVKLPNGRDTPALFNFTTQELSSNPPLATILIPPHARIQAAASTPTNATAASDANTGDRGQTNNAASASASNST

| SMILES | in vitro anti-growth / proliferation [1] | in vitro anti-invasive properties / invasion [2] | cytotoxic effects at the test doses [3] | formation of tumor micrometastases in distant organs [3] | orthotopic tumor growth [3] | cytotoxicity (prostate cancer cells) | CNS-depressant effects [4] | IC50 (Recombinant GSK-3β) [µM] |
| --- | --- | --- | --- | --- | --- | --- | --- | --- |
| O=C1NC(=O)/C(=C/c2ccc(O)cc2)N1 [Compound 1, (Z)-5-(4-hydroxybenzylidene)-hydantoin] | potent | potent | without apparent cytotoxic effects | inhibited | decreased |  |  |  |
| CCSc1ccc(/C=C2\NC(=O)NC2=O)cc1 [Compound 2, (Z)-5-(4-(ethylthio)benzylidene)-hydantoin] | potent | potent | without apparent cytotoxic effects | inhibited | decreased |  |  |  |
| CCN(CC)c1ccc(/C=C2\NC(=O)NC2=O)cc1 [Compound 3] |  |  |  |  |  | lack of cytotoxicity | did not show CNS-depressant effects |  |
| COc1cccc(/C=C2\NC(=O)NC2=O)c1 [Compound 4] |  |  |  |  |  |  |  | 14.1 ± 1.9 |
